Where two headings read alike, the source gives them in different places.
Legend:
Format in all cases: in vivo
[1] = system: morningglory (Ipomoea spp.); assay: Test A pre/postemergence; settings: Ipomoea, 240 h, read-out: Plant response rating, Morningglory; for pest or weed control at 125 g/ha: 125 g ai/ha; for pest or weed control at 500 g/ha: 500 g ai/ha
Outline: (§1)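 Seeds sown in loam–sand blend received a preemergence directed soil spray of test chemical in non-phytotoxic solvent with surfactant; same-formulation postemergence spray given concurrently to plants 2–10 cm tall at 1- to 2-leaf stage. Greenhouse ~ten days, then visual injury rating versus untreated controls, 0 (no effect) to 100 (complete control).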

[2] = system: giant foxtail (Setaria faberi); assay: Test A pre/postemergence; settings: Setaria faberi, 240 h, read-out: Plant response rating, Foxtail, Giant; for pest or weed control at 125 g/ha: 125 g ai/ha; for pest or weed control at 500 g/ha: 500 g ai/ha
Outline: as §1

[3] = system: redroot pigweed (Amaranthus retroflexus); assay: Test A pre/postemergence; settings: Amaranthus retroflexus, 240 h, read-out: Plant response rating, Pigweed; for pest or weed control at 125 g/ha: 125 g ai/ha; for pest or weed control at 500 g/ha: 500 g ai/ha
Outline: as §1

[4] = system: crabgrass (Digitaria sanguinalis); assay: Test A pre/postemergence; settings: Digitaria sanguinalis, 240 h, read-out: Plant response rating, Crabgrass; for pest or weed control at 125 g/ha: 125 g ai/ha; for pest or weed control at 500 g/ha: 500 g ai/ha
Outline: as §1

[5] = system: velvetleaf (Abutilon theophrasti); assay: Test A pre/postemergence; settings: Abutilon theophrasti, 240 h, read-out: Plant response rating, Velvetleaf; for pest or weed control at 125 g/ha: 125 g ai/ha; for pest or weed control at 500 g/ha: 500 g ai/ha
Outline: as §1

[6] = system: barnyardgrass (Echinochloa crus-galli); assay: Test A pre/postemergence; settings: Echinochloa crus-galli, 240 h, read-out: Plant response rating, Barnyardgrass; for pest or weed control at 125 g/ha: 125 g ai/ha; for pest or weed control at 500 g/ha: 500 g ai/ha
Outline: as §1

[7] = system: giant foxtail (Setaria faberii); assay: Test C pre/postemergence; settings: Setaria faberi; for pest or weed control at 125 g/ha: 125 g ai/ha; for pest or weed control at 31 g/ha: 31 g ai/ha; for pest or weed control at 62 g/ha: 62 g ai/ha; for pest or weed control at 250 g/ha: 250 g ai/ha
Outline: (§2)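 We sprayed seeded pots preemergence and 2–18 cm seedlings postemergence with test chemicals in a non-phytotoxic solvent mixture including surfactant. Greenhouse plants were visually compared with untreated controls at 12 to 14 days and scored 0 (no effect) to 100 (complete control).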

soybean (Glycine max) = assay: Test C pre/postemergence; settings: Glycine max; for plant injury at 31 g/ha: 31 g ai/ha; for plant injury at 62 g/ha: 62 g ai/ha; for plant injury at 125 g/ha: 125 g ai/ha; for plant injury at 250 g/ha: 250 g ai/ha
Outline: as §2

[8] = system: bermudagrass (Cynodon dactylon); assay: Test C pre/postemergence; settings: Cynodon dactylon; for pest or weed control at 31 g/ha: 31 g ai/ha; for pest or weed control at 62 g/ha: 62 g ai/ha; for pest or weed control at 125 g/ha: 125 g ai/ha; for pest or weed control at 250 g/ha: 250 g ai/ha
Outline: as §2

[9] = system: johnsongrass (Sorghum halepense); assay: Test C pre/postemergence; settings: Sorghum halepense; for pest or weed control at 31 g/ha: 31 g ai/ha; for pest or weed control at 62 g/ha: 62 g ai/ha; for pest or weed control at 125 g/ha: 125 g ai/ha; for pest or weed control at 250 g/ha: 250 g ai/ha
Outline: as §2

[10] = post-emergence, Postemergence, 0 to 100 scale (0 no effect, 100 complete control)
[11] = pre-emergence, Preemergence, 0 to 100 scale where 0 is no effect and 100 is complete control, approximately ten days
[12] = post-emergence, Postemergence, scale 0 to 100 (0 no effect, 100 complete control), read-out: Foxtail, Giant plant response rating
[13] = pre-emergence, Preemergence, scale 0 to 100, 0 no effect, 100 complete control, read-out: Plant response rating, Foxtail, Giant
[14] = pre-emergence, Preemergence, scale 0 to 100, read-out: Plant response rating, Foxtail, Giant
[15] = post-emergence, Postemergence, scale 0 to 100 (0 no effect, 100 complete control), read-out: Soybean plant response rating
[16] = pre-emergence, Preemergence, scale 0 to 100, 0 no effect, 100 complete control, read-out: Plant response rating, Soybean
[17] = pre-emergence, Preemergence, scale 0 to 100, read-out: Plant response rating, Soybean
[18] = post-emergence, Postemergence, scale 0 to 100 (0 no effect, 100 complete control), read-out: Bermudagrass plant response rating
[19] = pre-emergence, Preemergence, scale 0 to 100, 0 no effect, 100 complete control, read-out: Plant response rating, Bermudagrass
[20] = pre-emergence, Preemergence, scale 0 to 100, read-out: Plant response rating, Bermudagrass
[21] = post-emergence, Postemergence, scale 0 to 100 (0 no effect, 100 complete control), read-out: Johnsongrass plant response rating
[22] = pre-emergence, Preemergence, scale 0 to 100, 0 no effect, 100 complete control, read-out: Plant response rating, Johnsongrass
[23] = pre-emergence, Preemergence, scale 0 to 100, read-out: Plant response rating, Johnsongrass

For CCOC(=O)c1nc(-c2ccc(Cl)cc2)nc(N)c1Cl [Compound 64, ethyl 6-amino-5-chloro-2-(4-chlorophenyl)-4-pyrimidinecarboxylate], the pest or weed control at 125 g/ha [1, 10] was 80%, the pest or weed control at 500 g/ha [1, 10] was 95% and the pest or weed control at 125 g/ha [1, 11] was 40%. It also gave a pest or weed control at 500 g/ha [1, 11] of 70%, a pest or weed control at 125 g/ha [2, 10] of 70% and a pest or weed control at 500 g/ha [2, 10] of 80%. The pest or weed control at 125 g/ha [2, 11] was 15%, the pest or weed control at 500 g/ha [2, 11] was 70% and the pest or weed control at 125 g/ha [3, 10] was 90%. For the same molecule, the pest or weed control at 500 g/ha [3, 10] was 100%, the pest or weed control at 125 g/ha [3, 11] was 20% and the pest or weed control at 500 g/ha [3, 11] was 100%. For the same molecule, the pest or weed control at 125 g/ha [4, 10] was 50%, the pest or weed control at 500 g/ha [4, 10] was 70% and the pest or weed control at 125 g/ha [4, 11] was 25%. It also gave a pest or weed control at 500 g/ha [4, 11] of 90%, a pest or weed control at 125 g/ha [5, 10] of 95% and a pest or weed control at 500 g/ha [5, 10] of 100%. For the same molecule, the pest or weed control at 125 g/ha [5, 11] was 25%, the pest or weed control at 500 g/ha [5, 11] was 95% and the pest or weed control at 125 g/ha [6, 10] was 25%. For the same molecule, the pest or weed control at 500 g/ha [6, 10] was 70%, the pest or weed control at 125 g/ha [6, 11] was 0% and the pest or weed control at 500 g/ha [6, 11] was 60%. For the same molecule, the pest or weed control at 125 g/ha [7, 12] was 50%, the pest or weed control at 31 g/ha ([7]; post-emergence, Postemergence, read-out: Plant response rating (scale of 0 to 100), Foxtail, Giant) was 0% and the pest or weed control at 62 g/ha [7, 12] was 20%. For the same molecule, the pest or weed control at 250 g/ha ([7]; post-emergence, Postemergence, scale 0 to 100, read-out: Plant response rating, Foxtail, Giant) was 50%, the pest or weed control at 31 g/ha [7, 13] was 0% and the pest or weed control at 62 g/ha [7, 13] was 0%. The pest or weed control at 125 g/ha [7, 14] was 0%, the pest or weed control at 250 g/ha [7, 14] was 0% and the plant injury at 31 g/ha (soybean (Glycine max); post-emergence, Postemergence, read-out: Plant response rating (scale of 0 to 100), Soybean) was 90%. The plant injury at 62 g/ha (soybean (Glycine max); [15]) was 90%, the plant injury at 125 g/ha (soybean (Glycine max); [15]) was 100% and the plant injury at 250 g/ha (soybean (Glycine max); post-emergence, Postemergence, scale 0 to 100, read-out: Plant response rating, Soybean) was 100%. It also gave a plant injury at 31 g/ha (soybean (Glycine max); [16]) of 0%, a plant injury at 62 g/ha (soybean (Glycine max); [16]) of 85% and a plant injury at 125 g/ha (soybean (Glycine max); [17]) of 85%. It also gave a plant injury at 250 g/ha (soybean (Glycine max); [17]) of 85%, a pest or weed control at 31 g/ha ([8]; post-emergence, Postemergence, read-out: Plant response rating (scale of 0 to 100), Bermudagrass) of 20% and a pest or weed control at 62 g/ha [8, 18] of 60%. For the same molecule, the pest or weed control at 125 g/ha [8, 18] was 65%, the pest or weed control at 250 g/ha ([8]; post-emergence, Postemergence, scale 0 to 100, read-out: Plant response rating, Bermudagrass) was 70% and the pest or weed control at 31 g/ha [8, 19] was 0%. For the same molecule, the pest or weed control at 62 g/ha [8, 19] was 0%, the pest or weed control at 125 g/ha [8, 20] was 20% and the pest or weed control at 250 g/ha [8, 20] was 20%. It also gave a pest or weed control at 31 g/ha ([9]; post-emergence, Postemergence, read-out: Plant response rating (scale of 0 to 100), Johnsongrass) of 60%, a pest or weed control at 62 g/ha [9, 21] of 80% and a pest or weed control at 125 g/ha [9, 21] of 85%. For the same molecule, the pest or weed control at 250 g/ha ([9]; post-emergence, Postemergence, scale 0 to 100, read-out: Plant response rating, Johnsongrass) was 85%, the pest or weed control at 31 g/ha [9, 22] was 5% and the pest or weed control at 62 g/ha [9, 22] was 5%. For the same molecule, the pest or weed control at 125 g/ha [9, 23] was 50% and the pest or weed control at 250 g/ha [9, 23] was 60%.

From patent US8802597B2, “Herbicidal pyrimidines” (E I du Pont de Nemours and Company, priority 2003, dated 2014)
